According to US20120148492A1, “BISPHOSPHONIC ACID DERIVATIVE AND COMPOUND THEREOF LABELED WITH RADIOACTIVE METAL NUCLIDE” (FUJIFILM RI PHARMA CO., LTD., priority 2009, published 2012):
Values belong to the molecule of their own block, whether it stands above or below them.

Legend:
[1] = In vivo distribution of 68Ga-DOTA-alendronate in rats; parameters: species or system rat; settings: for Blood radioactivity / Bone radioactivity / Kidney radioactivity / Large intestine radioactivity / Liver radioactivity / Muscle radioactivity / Small intestine radioactivity / Spleen radioactivity / Bone/blood: Wistar male rats, 120 minutes after drug administration; for Blood radioactivity / Bone radioactivity / Kidney radioactivity / Large intestine radioactivity / Liver radioactivity / Muscle radioactivity / Small intestine radioactivity / Spleen radioactivity: tail vein; for Bone/blood: ratio of radioactivity accumulation
Procedure: To groups, each containing three Wistar male rats, 0.2 mL of each of 68Ga-DOTA-alendronate and 99mTc-MDP (product name: Techne MDP injection, manufactured by FUJIFILM RI Pharma Co., Ltd., 740 MBq/2 mL), each diluted to 12.3 to 19.8 MBq/mL, was administered into the rat tail vein under anesthesia. Then, 120 minutes after administration, the rats were sacrificed, organs were excised, and the weight and the radioactivity of each organ were measured. The measurement values were calculated as % I.D./g tissue weight, which is the radioactivity in each tissue divided by the tissue weight, as the ratio with respect to the dose.

[2] = test system: local bone metastasis model (human prostate cancer-derived cells transplanted into the right tibia); settings: local bone metastasis model mouse, approximately 6.0 MBq, from 60 minutes after administration
Procedure: Human prostate cancer-derived cells were transplanted into the right tibia of a mouse to produce a local bone metastasis model. To this model mouse, approximately 6.0 MBq of 68Ga-NOTA-alendronate was administered into the […] under anesthesia. An image was taken by PET/CT 60 minutes after administration.

[3] = Rat in vivo distribution experiment; settings: for Blood radioactivity / Bone radioactivity / Kidney radioactivity / Large intestine radioactivity / Liver radioactivity / Muscle radioactivity / Small intestine radioactivity / Spleen radioactivity / Bone/blood: Wistar male rats; for Blood radioactivity / Bone radioactivity / Kidney radioactivity / Large intestine radioactivity / Liver radioactivity / Muscle radioactivity / Small intestine radioactivity / Spleen radioactivity: tail vein; for Bone/blood: ratio of radioactivity accumulation
Procedure: Subsequently, 15, 30, 60, 120, and 240 minutes after administration, the rats were sacrificed, organs were excised, and the weight and the radioactivity of each organ were measured. The measurement values were calculated as % I.D./g tissue weight, which is the radioactivity in each tissue divided by the tissue weight, as the ratio with respect to the dose.

[4] = Wistar male rats, 18.5 to 37 MBq tail vein, from 60 minutes after administration
Procedure: To Wistar male rats, 68Ga-NOTA-alendronate and 99m Tc-MDP were each administered into the rat tail vein in amounts of 18.5 to 37 MBq under anesthesia. Then, 60 and 180 minutes after administration, images were taken by PET/CT or a SPECT camera.

radioactivity accumulation in bone ([1]; 120 minutes after administration, as 99mTc-MDP did): high radioactivity accumulation in bone
Blood radioactivity [1]: 0.024 % I.D./g
Bone radioactivity [1]: 4.54 % I.D./g
Kidney radioactivity [1]: 0.26 % I.D./g
Large intestine radioactivity [1]: 0.055 % I.D./g
Liver radioactivity [1]: 0.018 % I.D./g
Muscle radioactivity [1]: 0.005 % I.D./g
Small intestine radioactivity [1]: 0.522 % I.D./g
Spleen radioactivity [1]: 0.020 % I.D./g
clearance from blood ([1]; rat, versus 99mTc-MDP): delayed clearance from blood
Bone/blood [1]: 189
ratio of radioactivity accumulation in bone/blood ([1]; two hours after administration, versus 99mTc-MDP): no improvement
Structure (SMILES): O=C([O-])CN1CCN(CC(=O)[O-])CCN(CC(=O)NCCCC(O)(P(=O)(O)O)P(=O)(O)O)CCN(CC(=O)[O-])CC1.[68Ga+3] [68Ga-DOTA-alendronate]

Blood radioactivity ([3]; 15 min after administration): 0.399 % I.D./g
Bone radioactivity ([3]; 15 min after administration): 3.64 % I.D./g
Kidney radioactivity ([3]; 15 min after administration): 3.43 % I.D./g
Large intestine radioactivity ([3]; 15 min after administration): 0.132 % I.D./g
Liver radioactivity ([3]; 15 min after administration): 0.081 % I.D./g
Muscle radioactivity ([3]; 15 min after administration): 0.085 % I.D./g
Small intestine radioactivity ([3]; 15 min after administration): 0.121 % I.D./g
Spleen radioactivity ([3]; 15 min after administration): 0.103 % I.D./g
Blood radioactivity ([3]; 30 min after administration): 0.145 % I.D./g
Bone radioactivity ([3]; 30 min after administration): 4.17 % I.D./g
Kidney radioactivity ([3]; 30 min after administration): 0.89 % I.D./g
Large intestine radioactivity ([3]; 30 min after administration): 0.054 % I.D./g
Liver radioactivity ([3]; 30 min after administration): 0.039 % I.D./g
Muscle radioactivity ([3]; 30 min after administration): 0.033 % I.D./g
Small intestine radioactivity ([3]; 30 min after administration): 0.070 % I.D./g
Spleen radioactivity ([3]; 30 min after administration): 0.046 % I.D./g
Blood radioactivity ([3]; 60 min after administration): 0.030 % I.D./g
Bone radioactivity ([3]; 60 min after administration): 4.59 % I.D./g
Kidney radioactivity ([3]; 60 min after administration): 0.43 % I.D./g
Large intestine radioactivity ([3]; 60 min after administration): 0.023 % I.D./g
Liver radioactivity ([3]; 60 min after administration): 0.020 % I.D./g
Muscle radioactivity ([3]; 60 min after administration): 0.008 % I.D./g
Small intestine radioactivity ([3]; 60 min after administration): 0.056 % I.D./g
Spleen radioactivity ([3]; 60 min after administration): 0.021 % I.D./g
Blood radioactivity ([3]; 120 min after administration): 0.005 % I.D./g
Bone radioactivity ([3]; 120 min after administration): 5.19 % I.D./g
Kidney radioactivity ([3]; 120 min after administration): 0.37 % I.D./g
Large intestine radioactivity ([3]; 120 min after administration): 0.019 % I.D./g
Liver radioactivity ([3]; 120 min after administration): 0.015 % I.D./g
Muscle radioactivity ([3]; 120 min after administration): 0.004 % I.D./g
Small intestine radioactivity ([3]; 120 min after administration): 0.073 % I.D./g
Spleen radioactivity ([3]; 120 min after administration): 0.014 % I.D./g
Blood radioactivity ([3]; 240 min after administration): 0.003 % I.D./g
Bone radioactivity ([3]; 240 min after administration): 4.75 % I.D./g
Kidney radioactivity ([3]; 240 min after administration): 0.28 % I.D./g
Large intestine radioactivity ([3]; 240 min after administration): 0.077 % I.D./g
Liver radioactivity ([3]; 240 min after administration): 0.016 % I.D./g
Muscle radioactivity ([3]; 240 min after administration): 0.002 % I.D./g
Small intestine radioactivity ([3]; 240 min after administration): 0.011 % I.D./g
Spleen radioactivity ([3]; 240 min after administration): 0.012 % I.D./g
ratio of radioactivity accumulation in bone to that in blood ([3]; compared to 99mTc-MDP, from an early stage after administration): dominantly improved
accumulation in bone ([3]; compared to 99mTc-MDP, rat): equivalent value of accumulation in bone
non-specific accumulation in other organs ([3]; rat, similar amount to that of 99mTc-MDP): almost no non-specific accumulation
Bone/blood ([3]; 15 min after administration): 9
Bone/blood ([3]; 30 min after administration): 29
Bone/blood ([3]; 60 min after administration): 155
Bone/blood ([3]; 120 min after administration): 958
Bone/blood ([3]; 240 min after administration): 1696
Structure (SMILES): O=C([O-])CN1CCN(CC(=O)[O-])CCN(C(CCC(=O)NCCCC(O)(P(=O)(O)O)P(=O)(O)O)C(=O)[O-])CC1.[68Ga+3] (stereo not drawn) [68Ga-NOTA-alendronate]
visualization of bone and bone lesion in PET/CT image [2]: bone and the arrowed bone lesion are clearly visualized
clearance of radioactivity from blood ([3]; compared to 99mTc-MDP, rat): more rapid clearance of radioactivity from blood
visualization of bone in images [4]: bone is clearly visualized

Blood radioactivity [1]: 0.021 % I.D./g
Bone radioactivity [1]: 4.38 % I.D./g
Kidney radioactivity [1]: 0.44 % I.D./g
Large intestine radioactivity [1]: 0.015 % I.D./g
Liver radioactivity [1]: 0.024 % I.D./g
Muscle radioactivity [1]: 0.007 % I.D./g
Small intestine radioactivity [1]: 0.224 % I.D./g
Spleen radioactivity [1]: 0.020 % I.D./g
Bone/blood [1]: 209
Blood radioactivity ([3]; 15 min after administration): 0.415 % I.D./g
Bone radioactivity ([3]; 15 min after administration): 3.25 % I.D./g
Kidney radioactivity ([3]; 15 min after administration): 2.84 % I.D./g
Large intestine radioactivity ([3]; 15 min after administration): 0.121 % I.D./g
Liver radioactivity ([3]; 15 min after administration): 0.086 % I.D./g
Muscle radioactivity ([3]; 15 min after administration): 0.085 % I.D./g
Small intestine radioactivity ([3]; 15 min after administration): 0.134 % I.D./g
Spleen radioactivity ([3]; 15 min after administration): 0.107 % I.D./g
Blood radioactivity ([3]; 30 min after administration): 0.171 % I.D./g
Bone radioactivity ([3]; 30 min after administration): 3.41 % I.D./g
Kidney radioactivity ([3]; 30 min after administration): 1.02 % I.D./g
Large intestine radioactivity ([3]; 30 min after administration): 0.062 % I.D./g
Liver radioactivity ([3]; 30 min after administration): 0.048 % I.D./g
Muscle radioactivity ([3]; 30 min after administration): 0.036 % I.D./g
Small intestine radioactivity ([3]; 30 min after administration): 0.093 % I.D./g
Spleen radioactivity ([3]; 30 min after administration): 0.056 % I.D./g
Blood radioactivity ([3]; 60 min after administration): 0.044 % I.D./g
Bone radioactivity ([3]; 60 min after administration): 3.97 % I.D./g
Kidney radioactivity ([3]; 60 min after administration): 0.62 % I.D./g
Large intestine radioactivity ([3]; 60 min after administration): 0.020 % I.D./g
Liver radioactivity ([3]; 60 min after administration): 0.029 % I.D./g
Muscle radioactivity ([3]; 60 min after administration): 0.010 % I.D./g
Small intestine radioactivity ([3]; 60 min after administration): 0.081 % I.D./g
Spleen radioactivity ([3]; 60 min after administration): 0.027 % I.D./g
Blood radioactivity ([3]; 120 min after administration): 0.018 % I.D./g
Bone radioactivity ([3]; 120 min after administration): 4.07 % I.D./g
Kidney radioactivity ([3]; 120 min after administration): 0.36 % I.D./g
Large intestine radioactivity ([3]; 120 min after administration): 0.053 % I.D./g
Liver radioactivity ([3]; 120 min after administration): 0.022 % I.D./g
Muscle radioactivity ([3]; 120 min after administration): 0.005 % I.D./g
Small intestine radioactivity ([3]; 120 min after administration): 0.299 % I.D./g
Spleen radioactivity ([3]; 120 min after administration): 0.019 % I.D./g
Blood radioactivity ([3]; 240 min after administration): 0.012 % I.D./g
Bone radioactivity ([3]; 240 min after administration): 4.25 % I.D./g
Kidney radioactivity ([3]; 240 min after administration): 0.35 % I.D./g
Large intestine radioactivity ([3]; 240 min after administration): 0.467 % I.D./g
Liver radioactivity ([3]; 240 min after administration): 0.019 % I.D./g
Muscle radioactivity ([3]; 240 min after administration): 0.004 % I.D./g
Small intestine radioactivity ([3]; 240 min after administration): 0.056 % I.D./g
Spleen radioactivity ([3]; 240 min after administration): 0.019 % I.D./g
Bone/blood ([3]; 15 min after administration): 8
Bone/blood ([3]; 30 min after administration): 20
Bone/blood ([3]; 60 min after administration): 91
Bone/blood ([3]; 120 min after administration): 228
Bone/blood ([3]; 240 min after administration): 358
Structure (SMILES): O.O.O=P([O-])([O-])CP(=O)([O-])[O-].[99Tc+4] [99mTc-MDP]
